Assays:
Assay type in all cases: ADME, cell-free
[1] = Metabolic stability in Sprague-Dawley rat serum assessed as compound remaining at 2 MBq at 1 hr by RP-HPLC analysis; conditions: read-out: Stability
Serum = assay: (§1) Metabolic stability in Sprague-Dawley rat serum assessed as compound remaining at 2 MBq at 2 hrs by RP-HPLC analysis; conditions: 2 h
[2] = as §1; conditions: Sprague-Dawley, read-out: Stability

Row | remaining at 1 h, 2 MBq [1] | Stability (Serum) | remaining at 2 h, 2 MBq [2] | SMILES
1 | > 98% | Stable | – | O=C(NCCCCCC(=O)N1Cc2ccccc2C#Cc2ccccc21)c1ccc([18F])cc1
2 | > 98% | – | 96.8% | O=C(O)COCC(=O)NCCOCCOCCOCCOCCOCCOCCOCCOCCn1nnc2c1-c1ccccc1CN(C(=O)CCCCCNC(=O)c1ccc([18F])cc1)c1ccccc1-2
